Source: patent US9855277B2, “Use of 5H-dibenz/b,f/azepine-5-carboxamide derivatives for treating fibromyalgia” (BIAL—PORTELA & CA, S.A., priority 2009, dated 2018)

What was measured:
[1] = test system: mice with chronic constriction nerve injury (CCI); experiment: Paw withdrawal threshold (von Frey filaments) in CCI mice; assay type: in vivo
Method: The materials used were (as also indicated in FIGS. 1 and 2): • Vehicle: 0.5% hydroxy-propyl-methyl-cellulose (HPMC) in water, 5 ml/kg, p.o.; • 50 mg/kg, 100 mg/kg, 150 mg/kg and 200 mg/kg: ESL at 50, 100, 150 and 200 mg/kg, p.o.; • GP 100 mg/kg: gabapentin 100 mg/kg, p.o.
The potential analgesic effects of orally dosed ESL was investigated at doses of 50, 100, 150 and 200 mg/kg, on the paw withdrawal threshold (PWT) and these effects compared with those of the dose vehicle and gabapentin, the latter at 100 mg/kg, in a mouse model of chronic constriction nerve injury (CCI).
Each animal received a single oral dose of either ESL (50, 100, 150, or 200 mg/kg), or gabapentin (100 mg/kg in saline) or vehicle (5 ml/kg). Behavioural testing was then performed twice, at approximately 60 and 120 minutes post-dose, to investigate the effect of treatments.

[2] = test system: patients with partial epilepsy; experiment: MADRS, open label extension of phase 3 study, Trial 1; assay type: in vivo, human
Method: During an open label extension of a phase 3 study with ESL, the effect on depressive symptoms in patients taking at least one other anti-epileptic drug was assessed using the Montgomery Åsberg Depression Rating Scale (MADRS) at the end of treatment (after one year or after early discontinuation) and results compared with those at baseline. Patients were treated with ESL dosages in the range of 400-1500 mg, the majority being treated once daily with 800 mg ESL.

[3] = test system: patients with partial epilepsy; experiment: MADRS, open label extension of phase 3 study, Trial 2; assay type: in vivo, human
Method: During a further open label extension of a phase 3 study with ESL, the effect on depressive symptoms in patients taking at least one other anti-epileptic drug was assessed using the Montgomery Åsberg Depression Rating Scale (MADRS) at the end of treatment (after one year or after early discontinuation) and results compared with those at baseline. Patients were treated with ESL dosages in the range of 400-1500 mg, the majority being treated once daily with 800 mg ESL.

[4] = test system: dorsal horn neurones of CCI mice; experiment: Spontaneous activity of dorsal horn neurones in CCI mice (extracellular recording); assay type: in vivo; details: ESL 100 mg/kg i.p.; for spontaneous activity of dorsal horn neurones, firing rate: 5 preparations
Excerpt: Adult male BL CB F1 mice, weighing 25-30 g at the time of surgery and 26-38 g at the time of electrophysiological experiments, were used. The baseline paw withdrawal threshold (PWT) was examined using a series of graduated von Frey hairs (see below) on 3 consecutive days before surgery and re-assessed on the 7th and on the 14th days after surgery, before electrophysiological recording. The animals were killed by an overdose of pentobarbitone on completion of the study. The chronic constriction injury (CCI) model was prepared following the standard protocols described previously (Bennett and Xie, 1988). Mice were anaesthetised and the lateral side of the left thigh was shaved and sterilized with 75% ethanol. A small incision of approximately 0.5 cm was made parallel to the femur. The muscle was carefully separated to expose the sciatic nerve. Three loose ligatures were placed on the sciatic nerve with 5-0 suture silk thread at approximately 1 mm intervals. The wound was closed in layers with suture silk 4-0 and the animals were placed in a recovery chamber with the temperature controlled and set at 30° C. A dose of amoxicillin (0.02 mL, 3 mg) was routinely injected i.p. after surgery to prevent infection. The animals were returned to their home cages after complete recovery of consciousness and freedom of movement. For the first 2 days after surgery, the animals were closely monitored at least twice daily and subsequently, at least once daily until compound testing. The baseline PWT was tested for 3 consecutive days before surgery and re-assessed on the 7th and 14th days after surgery to monitor the development of mechanical allodynia. Only those mice showing significant mechanical allodynia (PWT≦0.2 g) were selected for subsequent electrophysiological experiments. After behavioural validation, the mice were re-anaesthetised, body temperature was monitored and controlled within a physiological range via a thermo-blanket system, and the electrocardiogram (ECG) was routinely monitored through a pair of stainless steel needles inserted into the left fore-paw and right hind-paw. A laminectomy was carried out to expose the L2-L6 segments of the spinal cord. In some experiments, spinalisation at the C2-C3 level or section of the L4-L6 dorsal roots of the left side at a site near the root entry zone to the spinal cord, was performed. A protective pool was formed and filled with warm mineral oil to cover the spinal cord and the sectioned roots. Extracellular unitary recordings of spontaneous activity from the spinal dorsal horn neurones were achieved by using a carbon microelectrode driven by an electrode manipulator. The electrical signals were recorded through a CED micro-1401 interface to a PC for later off-line analysis. Recording from a dorsal horn neurone displaying spontaneous electrical discharge was undertaken for a period of at least 10 min for control and 40 min after either vehicle or ESL administration. The suspension was prepared with a vehicle containing 30% DMSO in 0.9% sodium chloride to a dose concentration of 50 mg/mL. The vehicle and ESL were injected intraperitoneally at a volume of 2 mL/kg through a needle connected with a 1 mL syringe placed prior to the experiment. Each animal received only one treatment of either vehicle or ESL (100 mg/kg). Spontaneous activity was counted as firing rate per minute. An average firing rate over 5 min periods, recorded consecutively immediately prior to vehicle injection or ESL was used as control (and standardized as 100%). The average firing rate over a 5 min period recorded 30-35 min after vehicle or ESL injection was used to quantify firing rate following treatment and compared with the control level. Due to the high level of variation in frequency of spontaneous ectopic discharge from preparation to preparation; all data were standardized relative to control. All data were expressed as mean±SEM. A paired Student's t-test (two-way) was used to compare different time points in the same group. […]

[5] = long-term open-label adjunctive therapy, partial epilepsy

Which “PWT in the contralateral limbs vs vehicle group” value ([1]; 50 mg/kg group on 14th to 16th day, P<0.05) does the source give for `CC(=O)O[C@H]1Cc2ccccc2N(C(N)=O)c2ccccc21` [ESL, S-(−)-10-acetoxy-10,11-dihydro-5H-dibenz/b,f/azepine-5-carboxamide] here?
Its value is “significantly higher”.

What about the “potency and efficacy compared with reference compound” value ([1]; CCI mice, PWT) of the same compound?
The value was “potency and efficacy similar to the reference compound, gabapentin”.

What about the “PWT in the ipsilateral hindpaw” value ([1]; ESL 50, 100, 150, 200 mg/kg p.o., single dose, tested about 60 and 120 min post-dose) of the same compound?
Its value is “dose-dependently increased the PWT”.

And the “PWT in the contralateral side” value ([1]; ESL 50-200 mg/kg p.o., vs vehicle)?
The value was “did not significantly affect the PWT”.

And the “duration of the effect on PWT after dosing” value ([1]; ESL p.o., ipsilateral hindpaw)?
The value was “more than 2 hours”.

What about the “MADRS total score at end of treatment” value ([2]; ITT population (166 patients), baseline 10.5, ESL 400-1500 mg, mostly 800 mg once daily, one year or early discontinuation, p<0.05) of the same compound?
The value was 7.8.

What about the “depressive symptoms (MADRS), change from baseline” value [2, 5] of the same compound?
Its value is “Statistically and clinically significant improvement from baseline”.

And the “MADRS apparent sadness, mean relative improvement” value ([3]; ITT population (264 patients))?
Its value is 34%.

What about the “MADRS concentration difficulties, mean relative improvement” value ([3]; ITT population (264 patients)) of the same compound?
Its value is 30%.

And the “MADRS inability to feel, mean relative improvement” value ([3]; ITT population (264 patients))?
The value was 38%.

What about the “MADRS inner tension, mean relative improvement” value ([3]; ITT population (264 patients)) of the same compound?
The value was 31%.

What about the “MADRS lassitude, mean relative improvement” value ([3]; ITT population (264 patients)) of the same compound?
Its value is 38%.

What about the “MADRS pessimistic thoughts, mean relative improvement” value ([3]; ITT population (264 patients)) of the same compound?
The value was 26%.

What about the “MADRS reduced appetite, mean relative improvement” value ([3]; ITT population (264 patients)) of the same compound?
Its value is 57%.

And the “MADRS reduced sleep, mean relative improvement” value ([3]; ITT population (264 patients))?
Its value is 48%.

And the “MADRS reported sadness, mean relative improvement” value ([3]; ITT population (264 patients))?
Its value is 40%.

And the “MADRS suicidal thoughts, mean relative improvement” value ([3]; ITT population (264 patients))?
The value was 56%.

What about the “MADRS apparent sadness, mean relative improvement” value ([3]; PP population (232 patients)) of the same compound?
The value was 38%.

What about the “MADRS concentration difficulties, mean relative improvement” value ([3]; PP population (232 patients)) of the same compound?
The value was 33%.

What about the “MADRS inability to feel, mean relative improvement” value ([3]; PP population (232 patients)) of the same compound?
Its value is 35%.

What about the “MADRS inner tension, mean relative improvement” value ([3]; PP population (232 patients)) of the same compound?
Its value is 34%.

And the “MADRS lassitude, mean relative improvement” value ([3]; PP population (232 patients))?
Its value is 39%.

And the “MADRS pessimistic thoughts, mean relative improvement” value ([3]; PP population (232 patients))?
The value was 31%.

What about the “MADRS reduced appetite, mean relative improvement” value ([3]; PP population (232 patients)) of the same compound?
The value was 62%.

What about the “MADRS reduced sleep, mean relative improvement” value ([3]; PP population (232 patients)) of the same compound?
The value was 53%.

And the “MADRS reported sadness, mean relative improvement” value ([3]; PP population (232 patients))?
The value was 41%.

What about the “MADRS suicidal thoughts, mean relative improvement” value ([3]; PP population (232 patients)) of the same compound?
The value was 60%.

And the “depressive mood as assessed by MADRS, change from baseline” value [3, 5]?
Its value is “statistically significant improvement from baseline”.

What about the “spontaneous activity, % of control” value ([4]; dorsal root (L4-L6) sectioned CCI mice, 30-35 min, P<0.01 vs vehicle) of the same compound?
The value was 29.5±13.3 % of control.

And the “spontaneous activity of dorsal horn neurones, average firing rate” value ([4]; dorsal root (L4-L6) sectioned CCI mice, 30-35 min, control 378.1±85.4, 8 preparations)?
The value was 97.5±39.0 imps/min.

And the “spontaneous activity, % of control level” value ([4]; intact CCI mice, 30-35 min, P<0.01 vs control)?
The value was 26.3±10.1 % of control.

What about the “spontaneous activity of dorsal horn neurones, firing rate” value ([4]; intact CCI mice, 30-35 min after injection, control 780.7±462.5) of the same compound?
The value was 113.6±43.9 imps/min.

What about the “spontaneous activity, % of control levels” value ([4]; spinalised (C2-C3) CCI mice, 30-35 min, P<0.001) of the same compound?
The value was 14.8±6.8 % of control.

What about the “spontaneous activity of dorsal horn neurones, firing rate” value ([4]; spinalised (C2-C3) CCI mice, 30-35 min, control 504.5±286.1, P>0.05) of the same compound?
Its value is 31.2±12.7 imps/min.
